Source: patent publication US20220106301A1, “ACETAMIDO-PHENYLBENZAMIDE DERIVATIVES AND METHODS OF USING THE SAME” (Athenex, Inc., priority 2020, published 2022)

These molecules were tested against CYP3A4 (Homo sapiens, UniProt P08684) (assay: Determination of CYP3A4 inhibitory activity (human liver microsome, Luciferin-IPA)). Conditions: CYP3A4 IC50 (nM), 37° C. 11 minutes.
Sequence of CYP3A4 (P08684 whole entry): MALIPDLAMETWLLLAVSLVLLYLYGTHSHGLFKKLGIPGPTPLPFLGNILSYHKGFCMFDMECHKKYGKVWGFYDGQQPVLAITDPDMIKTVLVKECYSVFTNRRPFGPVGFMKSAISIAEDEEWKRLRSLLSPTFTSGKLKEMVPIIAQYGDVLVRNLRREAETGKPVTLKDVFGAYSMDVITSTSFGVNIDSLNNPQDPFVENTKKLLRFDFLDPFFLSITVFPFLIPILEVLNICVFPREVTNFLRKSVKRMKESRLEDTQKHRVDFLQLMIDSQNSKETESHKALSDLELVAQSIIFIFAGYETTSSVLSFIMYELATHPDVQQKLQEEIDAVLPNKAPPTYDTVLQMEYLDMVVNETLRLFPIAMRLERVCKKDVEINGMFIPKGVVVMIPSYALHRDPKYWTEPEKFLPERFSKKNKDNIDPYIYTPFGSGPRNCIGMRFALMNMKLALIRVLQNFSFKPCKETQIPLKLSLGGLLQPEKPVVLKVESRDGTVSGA
Method: The standard final Compound concentrations were 37, 111, 333, 1000, and 3000 nM. 12.5 μL of the Compound dilutions were transferred to a white 96-well plate. […] 25 μL of the buffer was added to each well. The plates were incubated at 37° C. for 11 minutes. 50 μL of luciferin detection reagent (Promega V9002) was added and the plates were incubated at room temperature for 5 minutes. The plate was read with a luminometer.
The dose-response curve and IC50 were obtained by fitting data to nonlinear regression model using GraphPad Prism software (v6.0).
Work on `CCN(CCc1ccc(NC(=O)c2cc(OC)c(OC)cc2NC(=O)c2cc(=O)c3ccccc3o2)cc1)Cc1ccc2oncc2c1` [Compound 165] yielded an IC50 of over 1000 nM. Work on `COc1ccc(CN(CCc2ccc(NC(=O)c3ccc(C(=O)OCc4cccnc4)cc3NC(=O)c3cc(=O)c4ccccc4o3)cc2)Cc2ccc(OC)c(OC)c2)cc1OC` [Compound 265] yielded an IC50 of over 1000 nM. Work on `COc1cncc(CN(CCc2ccc(NC(=O)c3cc(OC)c(OC)cc3NC(=O)c3ccc4ccccc4n3)cc2)Cc2ccc3c(cnn3C)c2)c1` [Compound 53] yielded an IC50 of 100 to 250 nM. With `COc1cc(NC(=O)c2cc(=O)c3ccccc3o2)c(C(=O)Nc2ccc(CCN(Cc3cccnc3)Cc3ccc4c(c3)CCO4)cc2)cc1OC` [Compound 45] the IC50 was 250 to 500 nM. `COc1cc(NC(=O)c2cc(=O)c3ccccc3o2)c(C(=O)Nc2ccc(CCN(Cc3ccncc3)Cc3ccc4c(cnn4C)c3)cc2)cc1OC` [Compound 33] gave an IC50 of under 100 nM. `CCN(CCc1ccc(NC(=O)c2cc(OC)c(OC)cc2NC(=O)c2cc(=O)c3ccccc3o2)cc1)Cc1ccc(OCCn2ccnc2)c(OC)c1` [Compound 134] was tested, and the IC50 was 100 to 250 nM. Molecule `COc1ccc(CN(CCc2ccc(NC(=O)c3cc(OC)c(OC)cc3NC(=O)c3cc(=O)c4ccccc4o3)cc2)Cc2ccc(-n3ccnc3)cc2)cc1OC` [Compound 28] has an IC50 of 100 to 250 nM. `COc1cc(NC(=O)c2cnc3c(O)cccc3c2)c(C(=O)Nc2ccc(CCN(C)Cc3ccc4c(cnn4C)c3)cc2)cc1OC` [Compound 136] was tested, and the IC50 was over 1000 nM. `COc1cncc(CN(CCc2ccc(NC(=O)c3cc(OC)c(OC)cc3NC(=O)c3cc(=O)c4ccccc4o3)cc2)Cc2cccc(-n3ccnc3)c2)c1` [Compound 217] gave an IC50 of 100 to 250 nM. For `COc1cc(NC(=O)c2cc(=O)c3ccccc3o2)c(C(=O)Nc2ccc(CCN(C)Cc3ccc4c(ccn4C)c3)cc2)cc1OC` [Compound 190], the IC50 was over 1000 nM. `COC(=O)c1ccc(C(=O)Nc2ccc(CCN(C)Cc3ccc4c(cnn4C)c3)cc2)c(NC(=O)c2cc(=O)c3ccccc3o2)c1` [Compound 270] gave an IC50 of over 1000 nM. `COC(=O)c1ccc(C(=O)Nc2ccc(CCN(Cc3cncc(OC)c3)Cc3ccc4c(cnn4C)c3)cc2)c(NC(=O)c2cc(=O)c3ccccc3[nH]2)c1` [Compound 79] was tested, and the IC50 was 100 to 250 nM. For `CCN(CCc1ccc(NC(=O)c2cc(OC)c(OC)cc2NC(=O)c2cc(=O)c3ccccc3o2)cc1)Cc1ccc(OC)c(OCCn2ccnc2)c1` [Compound 132], the IC50 was 100 to 250 nM. With `COc1cc(NC(=O)c2cc(=O)c3ccccc3o2)c(C(=O)Nc2ccc(CCN(Cc3ccc(-n4ccnc4C)cc3)Cc3ccc4c(cnn4C)c3)cc2)cc1OC` [Compound 241] the IC50 was over 1000 nM. Molecule `COc1ccc(CN(CCc2ccc(NC(=O)c3cc(OC)c(OC)cc3NC(=O)c3cc(=O)c4ccccc4o3)cc2)Cc2cccnc2)cc1OC` [Compound 29] has an IC50 of 100 to 250 nM. With `COc1cc(NC(=O)c2cc(=O)c3ccccc3o2)c(C(=O)Nc2ccc(CCN(Cc3ccc(-n4ccnc4C)cc3)Cc3cccc(-n4ccnc4)c3)cc2)cc1OC` [Compound 243] the IC50 was over 1000 nM. In the case of `COc1cc(NC(=O)c2cc(=O)c3ccccc3o2)c(C(=O)Nc2ccc(CCN(Cc3ccncc3)Cc3ccc4cnn(C)c4c3)cc2)cc1OC` [Compound 182], the IC50 was under 100 nM. With `COc1cc(NC(=O)c2cc(=O)c3ccccc3o2)c(C(=O)Nc2ccc(CCN(CCN3CCOCC3)Cc3ccc4c(cnn4C)c3)cc2)cc1OC` [Compound 149] the IC50 was over 1000 nM. `CCn1c2ccccc2c2cc(CN(CCc3ccc(NC(=O)c4cc(OC)c(OC)cc4NC(=O)c4cc(=O)c5ccccc5o4)cc3)Cc3cccc(-n4ccnc4)c3)ccc21` [Compound 212] showed an IC50 of over 1000 nM. `COc1cncc(CN(CCc2ccc(NC(=O)c3cc(OC)c(OC)cc3NC(=O)c3cc(=O)c4cc(C)ccc4o3)cc2)Cc2ccc3c(cnn3C)c2)c1` [Compound 52] was tested, and the IC50 was 250 to 500 nM. `COc1cc(NC(=O)c2cc(=O)c3ccccc3o2)c(C(=O)Nc2ccc(CCN(Cc3ccc4c(c3)CCO4)Cc3ccc4c(cnn4C)c3)cc2)cc1OC` [Compound 163] was tested, and the IC50 was over 1000 nM. `COc1cc(NC(=O)c2cc(=O)c3ccccc3o2)c(C(=O)Nc2ccc(CCN(Cc3cncn3C)Cc3cncn3C)cc2)cc1OC` [Compound 18] showed an IC50 of under 100 nM. Work on `CN(CCc1ccc(NC(=O)c2ccc(C(=O)OCc3cncs3)cc2NC(=O)c2cnc3ccccc3c2)cc1)Cc1ccc2c(cnn2C)c1` [Compound 283] yielded an IC50 of 500 to 1000 nM. `COc1cc(NC(=O)C2CC(=O)c3cc(C)ccc3O2)c(C(=O)Nc2ccc(CCN(Cc3cccc(-n4ccnc4)c3)Cc3ccc4c(cnn4C)c3)cc2)cc1OC` (centres unmarked) [Compound 199] gave an IC50 of 500 to 1000 nM. For `COc1cc(NC(=O)c2cc(=O)c3ccccc3o2)c(C(=O)Nc2ccc(CCN(C)C(=O)c3cccc(-c4cccnc4)c3)cc2)cc1OC` [Compound 124], the IC50 was 250 to 500 nM. `COc1cncc(CN(CCc2ccc(NC(=O)c3ccc(C(=O)NS(=O)(=O)N(C)C)cc3NC(=O)c3cc(=O)c4ccccc4o3)cc2)Cc2ccc3c(cnn3C)c2)c1` [Compound 278] showed an IC50 of 250 to 500 nM. For `COc1cc(NC(=O)c2cc(=O)c3ccccc3o2)c(C(=O)Nc2ccc(CCN(C)Cc3cccc(-c4cncs4)c3)cc2)cc1OC` [Compound 15], the IC50 was 500 to 1000 nM. `COc1cc(NC(=O)c2cc(=O)c3ccccc3o2)c(C(=O)Nc2ccc(CCN(Cc3cncc(C)c3)Cc3ccc4c(cnn4C)c3)cc2)cc1OC` [Compound 57] was tested, and the IC50 was 250 to 500 nM. In the case of `COc1cc(NC(=O)c2cc(=O)c3ccccc3o2)c(C(=O)Nc2ccc(CCN(Cc3cccnc3)Cc3ccc4c(c3)n(C)c(=O)n4C)cc2)cc1OC` [Compound 44], the IC50 was 100 to 250 nM. For `COc1cc(NC(=O)c2cc(=O)c3ccccc3o2)c(C(=O)Nc2ccc(CCN(Cc3cncc(Cl)c3)Cc3ccc4c(cnn4C)c3)cc2)cc1OC` [Compound 227], the IC50 was 500 to 1000 nM. In the case of `COc1cc(NC(=O)c2cc(=O)c3ccccc3o2)c(C(=O)Nc2ccc(CCN(C)Cc3cccc(OC[C@@H]4CO[C@@](Cn5ccnc5)(c5ccc(Cl)cc5Cl)O4)c3)cc2)cc1OC` [Compound 17], the IC50 was under 100 nM. With `COc1cc(NC(=O)c2cc(=O)c3ccccc3o2)c(C(=O)Nc2ccc(CCN(C)Cc3ccc(-n4ccnc4)cc3)cc2)cc1OC` [Compound 1] the IC50 was 100 to 250 nM. `COc1cncc(CN(CCc2ccc(NC(=O)c3ccc(C(=O)OCCN4CCN(C)CC4)cc3NC(=O)c3cc(=O)c4ccccc4o3)cc2)Cc2ccc3c(cnn3C)c2)c1` [Compound 272] showed an IC50 of 250 to 500 nM. Work on `COc1cc(NC(=O)c2cc(=O)c3ccccc3o2)c(C(=O)Nc2ccc(CCN(Cc3cncc(C)c3)Cc3ccc4c(c3)c(C)nn4C)cc2)cc1OC` [Compound 64] yielded an IC50 of 100 to 250 nM. With `COc1cc(NC(=O)c2cc(=O)c3ccccc3o2)c(C(=O)Nc2ccc(CCN(Cc3ccc4c(cnn4C)c3)Cc3cnccc3O)cc2)cc1OC` [Compound 228] the IC50 was over 1000 nM. In the case of `CCN(CCc1ccc(NC(=O)c2cc(OC)c(OC)cc2NC(=O)c2cc(=O)c3ccccc3o2)cc1)Cc1ccc(OCCn2ccnc2)cc1` [Compound 131], the IC50 was 250 to 500 nM. With `COc1cc(NC(=O)c2cc(=O)c3ccccc3o2)c(C(=O)Nc2ccc(CCN(C)Cc3ccc4c(c3)CNN4C)cc2)cc1OC` [Compound 12] the IC50 was over 1000 nM. For `COc1cc(NC(=O)c2cc(=O)c3ccccc3o2)c(C(=O)Nc2ccc(CCN(C)Cc3ccc(-n4cncn4)cc3)cc2)cc1OC` [Compound 19], the IC50 was 250 to 500 nM. In the case of `COc1cc(NC(=O)c2cc(=O)c3ccccc3o2)c(C(=O)Nc2ccc(CCN(Cc3ccc4c(c3)c(C)nn4C)Cc3ccc4c(c3)c(C)nn4C)cc2)cc1OC` [Compound 180], the IC50 was over 1000 nM. `COc1cc(NC(=O)c2cc(=O)c3ccccc3o2)c(C(=O)Nc2ccc(CCN(C)Cc3cncn3C)cc2)cc1OC` [Compound 86] gave an IC50 of 250 to 500 nM. `COc1cc(NC(=O)c2cc(=O)c3ccccc3o2)c(C(=O)Nc2ccc(CCN(Cc3cncc(OCCN)c3)Cc3ccc4c(cnn4C)c3)cc2)cc1OC` [Compound 246] was tested, and the IC50 was over 1000 nM. `COc1cc(NC(=O)c2cc(=O)c3ccccc3o2)c(C(=O)Nc2ccc(CCN(Cc3cncc(-n4ccnc4C)c3)Cc3ccc4c(cnn4C)c3)cc2)cc1OC` [Compound 58] gave an IC50 of 500 to 1000 nM. For `COCCOc1cncc(CN(CCc2ccc(NC(=O)c3cc(OC)c(OC)cc3NC(=O)c3cc(=O)c4cc(C)ccc4o3)cc2)Cc2ccc3c(cnn3C)c2)c1` [Compound 60], the IC50 was 250 to 500 nM. Work on `COc1cc(NC(=O)c2cc(=O)c3ccccc3o2)c(C(=O)Nc2ccc(CCN(Cc3cncc(OCCN(C)C)c3)Cc3ccc4c(cnn4C)c3)cc2)cc1OC` [Compound 244] yielded an IC50 of over 1000 nM. `COc1cncc(CN(CCc2ccc(NC(=O)c3cc(OC)c(OC)cc3NC(=O)c3cc(=O)c4ccccc4o3)cc2)Cc2ccc3c(cnn3C)c2)c1` [Compound 48] was tested, and the IC50 was 100 to 250 nM. For `COc1cc(NC(=O)c2cc(=O)c3cc(C)ccc3o2)c(C(=O)Nc2ccc(CCN(Cc3ccc4c(cnn4C)c3)Cc3ccc4c(c3)nnn4C)cc2)cc1OC` [Compound 251], the IC50 was over 1000 nM. Work on `COc1cc(NC(=O)c2cc(=O)c3ccccc3o2)c(C(=O)Nc2ccc(CCN(C)Cc3ccc(-c4cscn4)cc3)cc2)cc1OC` [Compound 112] yielded an IC50 of over 1000 nM. `CCN(CCc1ccc(NC(=O)c2cc(OC)c(OC)cc2NC(=O)c2cc(=O)c3ccccc3o2)cc1)Cc1ccc(OC)c(Cn2cncn2)c1` [Compound 24] was tested, and the IC50 was 100 to 250 nM. `COc1cc(NC(=O)c2cc(=O)c3cc(C)ccc3o2)c(C(=O)Nc2ccc(CCN(Cc3cncc(C(C)C)c3)Cc3ccc4c(cnn4C)c3)cc2)cc1OC` [Compound 76] gave an IC50 of over 1000 nM. For `COc1cc(NC(=O)c2cc(=O)c3cc(C)cc(C)c3o2)c(C(=O)Nc2ccc(CCN(Cc3cccc(-n4ccnc4)c3)Cc3ccc4c(cnn4C)c3)cc2)cc1OC` [Compound 197], the IC50 was over 1000 nM. For `COc1cc(NC(=O)c2cc(=O)c3cc(C)ccc3o2)c(C(=O)Nc2ccc(CCN(Cc3cncc(-c4ccccc4)c3)Cc3ccc4c(cnn4C)c3)cc2)cc1OC` [Compound 255], the IC50 was over 1000 nM. `COc1cc(NC(=O)c2cc(=O)c3ccccc3o2)c(C(=O)Nc2ccc(CCN(Cc3cncc(O)c3)Cc3ccc4c(cnn4C)c3)cc2)cc1OC` [Compound 223] showed an IC50 of 100 to 250 nM. `COc1cc(NC(=O)c2cc(=O)c3ccccc3o2)c(C(=O)Nc2ccc(CCN(Cc3cccc(-n4ccnc4)c3)Cc3ccc(C)c4ncccc34)cc2)cc1OC` [Compound 206] gave an IC50 of over 1000 nM.
